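How tested: cells in 96-well plates exposed to compound for 48 hours at five concentrations. Here, GI50 denotes the concentration required for 50% inhibition of growth.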 Activity calls are given as the source filed them. Rule as the data show it: active = GI50 up to about 1.1 µM and inactive = higher.
Key:
Test in all cases: NCI tumour cell line growth inhibition, 48 h
HL-60 = test system: HL-60
T47D = test system: T47D
SF-539 = test system: SF-539
U-251 = test system: U-251
TK-10 = test system: TK-10
OVCAR-3 = test system: OVCAR-3
NCI-H522 = test system: NCI-H522
EKVX = test system: EKVX
DU-145 = test system: DU-145
SW-620 = test system: SW-620
COLO 205 = test system: COLO 205
IGROV-1 = test system: IGROV-1
NCI/ADR-RES = test system: NCI/ADR-RES
KM12 = test system: KM12
HCT-116 = test system: HCT-116
HT-29 = test system: HT-29
MDA-MB-231 = test system: MDA-MB-231
SN12C = test system: SN12C
CCRF-CEM = test system: CCRF-CEM
HCC 2998 = test system: HCC 2998

| SMILES | GI50 (HL-60) | GI50 (T47D) | GI50 (SF-539) | GI50 (U-251) | GI50 (TK-10) | GI50 (OVCAR-3) | GI50 (NCI-H522) | GI50 (EKVX) | GI50 (DU-145) | GI50 (SW-620) | GI50 (COLO 205) | GI50 (IGROV-1) | GI50 (NCI/ADR-RES) | GI50 (KM12) | GI50 (HCT-116) | GI50 (HT-29) | GI50 (MDA-MB-231) | GI50 (SN12C) | GI50 (CCRF-CEM) | GI50 (HCC 2998) |
| --- | --- | --- | --- | --- | --- | --- | --- | --- | --- | --- | --- | --- | --- | --- | --- | --- | --- | --- | --- | --- |
| N/C(=N\c1ccc(Cl)cc1)NS(=O)(=O)c1c(C(F)(F)F)cccc1C(F)(F)F | 20 µM (inactive) | 12.5 µM (inactive) | 41.3 µM (inactive) | 13.5 µM (inactive) | 24 µM (inactive) | 16.6 µM (inactive) | 10.1 µM (inactive) | 5.93 µM (inactive) | 46.5 µM (inactive) | 33.3 µM (inactive) | 11.1 µM (inactive) | 16.6 µM (inactive) | 12.2 µM (inactive) | 4.89 µM (inactive) | 10 µM (inactive) | 19.8 µM (inactive) | 22.2 µM (inactive) | 16.1 µM (inactive) |  |  |
| N#CC(C#N)=Cc1c[nH]c(=O)[nH]c1=O | > 100 µM (inactive) | > 100 µM (inactive) | > 100 µM (inactive) | > 100 µM (inactive) | > 100 µM (inactive) | > 100 µM (inactive) | 41 µM (inactive) | > 100 µM (inactive) | > 100 µM (inactive) | 54.2 µM (inactive) | > 100 µM (inactive) | > 100 µM (inactive) | > 100 µM (inactive) | > 100 µM (inactive) | > 100 µM (inactive) | > 100 µM (inactive) | > 100 µM (inactive) | > 100 µM (inactive) | 17.8 µM (inactive) |  |
| C/C(=C\c1ccccc1)C(=O)NCc1ccc(C(=O)NCCc2ccccc2)cc1 |  | > 89.7 µM (inactive) | 10.1 µM (inactive) | > 51.8 µM (inactive) | 41.9 µM (inactive) | > 100 µM (inactive) | > 100 µM (inactive) | 22.5 µM (inactive) | > 100 µM (inactive) | > 100 µM (inactive) | > 100 µM (inactive) | 35.8 µM (inactive) | > 39.9 µM (inactive) | > 100 µM (inactive) | 43.4 µM (inactive) | 2.67 µM (inactive) | > 43.2 µM (inactive) | 21.2 µM (inactive) | > 100 µM (inactive) | > 100 µM (inactive) |
| COc1cc(/C=C2/SC(c3ccccc3)N(Cc3ccccc3)C2=O)cc(OC)c1OC (configuration not stated) |  | 27.2 µM (inactive) |  | 36.7 µM (inactive) | 53 µM (inactive) | 33.7 µM (inactive) | 17.2 µM (inactive) | 42.9 µM (inactive) | 42.7 µM (inactive) | 63.2 µM (inactive) | 19.8 µM (inactive) |  | 35 µM (inactive) | 27.2 µM (inactive) | 14.9 µM (inactive) | 25.9 µM (inactive) | > 100 µM (inactive) | 21.5 µM (inactive) |  | 80.5 µM (inactive) |
| CCOC(=O)C1=CN/C(=C(/C)C(=O)OC)SC1C(=O)OCC (configuration not stated) |  | 57.9 µM (inactive) | > 100 µM (inactive) | > 100 µM (inactive) | > 92.9 µM (inactive) | > 100 µM (inactive) | > 76.7 µM (inactive) | > 100 µM (inactive) | > 100 µM (inactive) | > 100 µM (inactive) | > 100 µM (inactive) | > 100 µM (inactive) | > 84.3 µM (inactive) | > 100 µM (inactive) | > 100 µM (inactive) | > 100 µM (inactive) | > 100 µM (inactive) | > 100 µM (inactive) | > 61 µM (inactive) | > 100 µM (inactive) |
| Fc1c(F)c(C(F)(F)F)c(F)c(F)c1N/N=C\c1c[nH]c2ccccc12 | 2.54 µM (inactive) | 2.4 µM (inactive) |  | 3.23 µM (inactive) | 4.48 µM (inactive) | 1.87 µM (inactive) | 1.74 µM (inactive) | 2.84 µM (inactive) | 3.64 µM (inactive) | 3.37 µM (inactive) | 1.28 µM (inactive) | 1.26 µM (inactive) | 2.13 µM (inactive) | 1.94 µM (inactive) | 3.73 µM (inactive) | 2.48 µM (inactive) | 3.03 µM (inactive) | 3.13 µM (inactive) | 1.23 µM (inactive) | 1.85 µM (inactive) |
| COc1cc2c(/C=C3/C(=O)Nc4ccc(Cl)cc43)c(Cl)[nH]c2cc1C | 0.366 µM (active) | 4.39 µM (inactive) | 0.232 µM (active) | 0.394 µM (active) | 1.05 µM (active) | 0.356 µM (active) | 2.16 µM (inactive) |  | 1.36 µM (inactive) | 0.596 µM (active) | 0.352 µM (active) | 0.368 µM (active) | 0.662 µM (active) | 0.416 µM (active) | 0.794 µM (active) | 0.544 µM (active) | 0.74 µM (active) | 0.325 µM (active) | 0.332 µM (active) |  |
| CC(=O)/N=S(/NC(=O)c1ccc(C)cc1)C(Cl)(Cl)Cl (configuration not stated) | 0.226 µM (active) | 34.3 µM (inactive) | 77.1 µM (inactive) | 22 µM (inactive) | > 100 µM (inactive) | 20.9 µM (inactive) |  | 44.5 µM (inactive) | > 100 µM (inactive) | 15.8 µM (inactive) | 19.8 µM (inactive) | 38.6 µM (inactive) | 20.4 µM (inactive) | > 100 µM (inactive) | 31 µM (inactive) | 23.6 µM (inactive) | 26.2 µM (inactive) | 37.9 µM (inactive) | 18.6 µM (inactive) | 15.1 µM (inactive) |
| Cn1c(=O)c2c(nc3sc4nc5ccccc5nc4n32)n(C)c1=O | > 100 µM (inactive) | > 100 µM (inactive) | > 100 µM (inactive) | > 100 µM (inactive) | > 100 µM (inactive) | > 100 µM (inactive) |  | > 100 µM (inactive) | > 100 µM (inactive) |  | > 100 µM (inactive) | > 100 µM (inactive) | > 100 µM (inactive) | > 100 µM (inactive) | > 100 µM (inactive) | > 100 µM (inactive) | > 100 µM (inactive) | 85.9 µM (inactive) | > 100 µM (inactive) | > 100 µM (inactive) |
| Cc1ccc([S+]([O-])C[C@](NC(=O)OCc2ccccc2)(Sc2ccccc2)C(F)F)cc1 (some centres not stated) | 4.12 µM (inactive) | 10.5 µM (inactive) |  | 17 µM (inactive) | 20.3 µM (inactive) | 24.3 µM (inactive) | 7.13 µM (inactive) | 13.7 µM (inactive) | 18.7 µM (inactive) | 19.6 µM (inactive) | 19.4 µM (inactive) | 8.69 µM (inactive) | 17 µM (inactive) | 14.6 µM (inactive) | 16.3 µM (inactive) | 16.6 µM (inactive) | 19.4 µM (inactive) |  | 1.11 µM (active) | 18.7 µM (inactive) |
| O=C1OI(C#Cc2ccccc2)c2ccccc21 | 1.12 µM (active) | 3.16 µM (inactive) | 2.16 µM (inactive) | 2.62 µM (inactive) | 3.29 µM (inactive) | 2.64 µM (inactive) |  | 2.76 µM (inactive) | 7.18 µM (inactive) | 2.19 µM (inactive) | 3.37 µM (inactive) | 2.14 µM (inactive) | 5.98 µM (inactive) | 3.52 µM (inactive) | 2.24 µM (inactive) | 3.94 µM (inactive) | 6.1 µM (inactive) | 4.16 µM (inactive) | 0.355 µM (active) | 6.58 µM (inactive) |
